Experiment: Excipient compatibility: accelerated stability of Compound A tablets (degradation by chromatography)
Type: physicochemical
Conditions: stored at 50/75 for 45 days
Protocol: Excipient compatibility experiments were designed as linear D-optimal designs with qualitative factors of two or more levels. The formulations used in these experiments can be directly compressed into tablets. For dry processing, three factors were evaluated, namely binary filler combination, choice of disintegrant and choice of lubricant. In the experimental design shown below (see Table 3) the effect of an HPMC-based film coat as well as the addition of colloidal silicon dioxide was evaluated using repeat corners.
Pure drug substance was included as a reference in all conditions.
This is shown in FIG. 2, where tablets stored at 50/75 for 45 days are compared with neat drug substance stored in identical conditions as well as a freshly prepared standard solution from the same drug substance batch. The chromatograms are stacked in order of degradation (and slightly shifted for clarity).
However, the general trends from the other conditions could still be seen. […] Based on this, 70/XX data was omitted from the shelf life prediction model.
Five different peaks were monitored at five different conditions. However, as discussed above, the 70/XX condition was excluded based on a probable conversion to Form B. Overall, Compound A in tablets containing glyceryl behenate appears to degrade to a slightly lesser degree than magnesium stearate.

Degradation (overlaid chromatograms, FIG. 2): almost no difference
SMILES: Cn1c(=O)oc2ccc(-c3ccc(C[C@@H](C#N)NC(=O)[C@@H]4CNCCCO4)cc3)cc21 [Compound A, (2S)-N-{(1S)-1-cyano-2-[4-(3-methyl-2-oxo-2,3-dihydro-1,3-benzoxazol-5-yl)phenyl]ethyl}-1,4-oxazepane-2-carboxamide]

Source: US12201638B2, “Pharmaceutical compositions comprising (2S)-n-{(1S)-1-cyano-2-[4-(3-methyl-2-oxo-2,3-dihydro-1,3-benzoxazol-5-yl)phenyl]ethyl}-1,4-oxazepane-2-carboxamide” (ASTRAZENECA AB, priority 2018, dated 2025)
